Test results published in article PMC9019904, “AD Informer Set: Chemical tools to facilitate Alzheimer's disease drug discovery” (Alzheimer's & Dementia : Translational Research & Clinical …, 2022).
Where a SMILES comes first, the peptide text is derived from it. [ ]: non-standard residue; d: D form. The star is where a group is joined. ξ: configuration not given here. ξF = NC(Cc1ccccc1)C(=O)O; Cbz = O=C(OCc1ccccc1)*

Columns and labels:
[1] = tested on: BV2 (mouse microglia) cell line; assay: pHrodo-myelin phagocytosis/cell viability high content imaging assay: viability (cell count, nuclear area, nuclear intensity); conditions: 48 hours treatment
Description: (§1) All AD Informer Set compounds were tested in two immortalized microglial cell lines, murine (BV2), and human (HMC3), in a high‐content imaging assay in duplicate by the Chu lab. Experimental details and all data can be found as supporting information files.
(§2) The role of microglia in AD has been well documented and was thus chosen as a cell type in which to profile the AD Informer Set.[43], [44], [45] As an example, neuroinflammation, as detected by the presence of activated complement proteins, interleukins, cytokines, and chemokines in microglia and astrocytes, is increased early in AD and is considered pathogenic due to its chronic nature.[33], [34] Cytotoxic effects can be assessed by considering multiple parameters.
(§3) Microglial viability and phagocytosis studies: The pHrodo-myelin phagocytosis/cell viability assay, modified based on a published method, was run with immortalized BV2 (mouse microglia) and HMC3 (human microglia) cell lines in the Chu lab at IUSM. The 384-well plate high content analysis assay with BV2 and HMC3 microglial cell lines is used to quantify both phagocytosis and cell viability simultaneously. High content imaging is performed with the ArrayScan automatic imaging system and imaging analysis done with the software on the system. After allowing cells to adhere overnight, they are treated with compounds for total 48 hours including final 20 hours seeded with pHrodo-myelin (labeled phagocytosis ligand, purified […]
(§4) (approximately 22 hours after pHrodo-myelin addition). Three measurements are extracted from the assay: 1) phagocytosis signal by mean total phagocytosis spot intensity per cell, 2) total cell counts per well as the main measurement of cell viability, and 3) mean average nuclear intensity per cell as profiling of cell health since apoptotic cells showing nuclear intensity increase (early apoptosis) and decrease (later apoptosis), respectively. These measurements allow for evaluation of compound-induced phagocytosis (1) and cytotoxicity (2 and 3). Assays were carried out at a single concentration (10 μM). Idelalisib (10 μM) and cytochalasin-D (4 μM) were used as positive controls in the assay. All data, which was an average of 2 data points, was normalized to untreated wells and reported as % control, which is included in the Supporting Information both as a raw data file and summarized in the compound/gene-annotation file.

[2] = tested on: HMC3 (human microglia) cell line; assay: as above; conditions: 48 hours treatment
Description: as §1, §2, §3, §4

[3] = tested on: BV2 (mouse microglia) cell line; assay: pHrodo-myelin phagocytosis/cell viability high content imaging assay: phagocytosis signal; assay type: cell-based
Description: (§5) It is important to note that stressed cells, such as those that are dying, are prone to show an increase in phagocytosis. […] MerTK promotes phagocytosis and thus MerTK inhibition is proposed to lead to inhibition of phagocytosis.[47]
(§6) phagocytosis and cell viability simultaneously. High content imaging is performed with the
(§7) (approximately 22 hours after pHrodo-myelin addition). Three measurements are extracted
(§8) intensity increase (early apoptosis) and decrease (later apoptosis), respectively. These
and 3). […]

[4] = tested on: HMC3 (human microglia) cell line; assay: as above; assay type: cell-based
Description: as §5, §6, §7, §8
and 3). […]

[5] = BV2, compound 10 uM, pHrodo-myelin
[6] = HMC3, compound 10 uM, pHrodo-myelin
[7] = BV2 cells, 10 uM compound, 48 hours treatment, pHrodo-myelin final 20 hours
[8] = HMC3 cells, 10 uM compound, 48 hours treatment, pHrodo-myelin final 20 hours

| SMILES | 1. Cell count (% control) ([1]; BV2, compound 10 uM) | 2. Nuclear Area (% Control) ([1]; BV2, compound 10 uM) | 3. Nuclear DNA Intensity (% control) ([1]; BV2, compound 10 uM) | 1. Cell count (% control) ([2]; HMC3, compound 10 uM) | 2. Nuclear Area (% Control) ([2]; HMC3, compound 10 uM) | 3. Nuclear DNA Intensity (% control) ([2]; HMC3, compound 10 uM) | 4. Phagocytosis (% control) [3, 5] [% control] | 4. Phagocytosis (% control) [4, 6] [% control] | 1. Cell count (% control) ([1]; BV2 cells, 10 uM compound) | 2. Nuclear Area (% Control) ([1]; BV2 cells, 10 uM compound) | 3. Nuclear DNA Intensity (% control) ([1]; BV2 cells, 10 uM compound) | 1. Cell count (% control) ([2]; HMC3 cells, 10 uM compound) | 2. Nuclear Area (% Control) ([2]; HMC3 cells, 10 uM compound) | 3. Nuclear DNA Intensity (% control) ([2]; HMC3 cells, 10 uM compound) | 4. Phagocytosis (% control) [3, 7] [% control] | 4. Phagocytosis (% control) [4, 8] [% control] |
| --- | --- | --- | --- | --- | --- | --- | --- | --- | --- | --- | --- | --- | --- | --- | --- | --- |
| CCOC(=O)c1cccc(CNc2ccc(N(C)C(=O)Nc3ccccc3)cc2)c1 [UNC10302705A] | 77.7 | 107.2 | 109.9 | 79.1 | 96.2 | 114.6 | 194.2 | 139.7 | – | – | – | – | – | – | – | – |
| O=C(NNc1nc2cc(F)ccc2n2cccc12)c1cnccn1 [UNC10302850A] | – | – | – | – | – | – | – | – | 29.4 | 129.5 | 94.0 | 86.1 | 94.6 | 106.5 | 362.4 | 103.0 |
| COS(=O)(=O)[O-].C[n+]1c2ccccc2nc2ccccc21 [UNC10302857A] | – | – | – | – | – | – | – | – | 16.9 | 123.3 | 59.8 | 60.7 | 61.5 | 197.5 | 27.9 | 0.031 |
| COc1ccc(CCCN2CCC(COC(c3ccccc3)c3ccccc3)CC2)cc1 [UNC10303165A] | 87.4 | 108.5 | 107.0 | 110.9 | 113.8 | 93.8 | 176.2 | 43.5 | – | – | – | – | – | – | – | – |
| CNC(=O)[C@H](Cc1c[nH]c2ccccc12)NC(=O)[C@@H](CC(=O)NO)CC(C)C [UNC10302858A] | – | – | – | – | – | – | – | – | 101.6 | 102.8 | 98.5 | 86.0 | 95.1 | 101.4 | 100.0 | 82.4 |
| O=c1[nH]c2ccccc2n1C1CCN(CCCC(c2ccc(F)cc2)c2ccc(F)cc2)CC1 [UNC10101002A] | 77.1 | 99.5 | 98.4 | 97.6 | 104.3 | 96.0 | 134.9 | 140.6 | – | – | – | – | – | – | – | – |
| CC(C)[C@H](NC(=O)OCc1ccccc1)C(=O)NC(C=O)Cc1ccccc1 (stereo partly drawn) [UNC10302675A] (Cbz-Val-[ξF]-aldehyde) | – | – | – | – | – | – | – | – | 117.2 | 102.4 | 114.8 | 109.7 | 102.5 | 106.2 | 144.5 | 106.9 |
| Nc1nc(Nc2ccc3c(c2)CC[C@@H](N2CCCC2)CC3)nn1-c1cc2c(nn1)-c1ccccc1CCC2 [UNC10220544A] | – | – | – | – | – | – | – | – | 2.8 | 94.5 | 55.2 | 56.4 | 55.3 | 170.6 | 0.0 | 0.8 |
